Measured values taken from patent US11771765B2, “Light augmented treatment method” (The Procter & Gamble Company, priority 2019, dated 2023).

Columns and labels:
protoporphyrin IX (PPIX) [1] = assay: Protoporphyrin IX levels in treated M. furfur cells by HPLC; format: cell-based
protoporphyrin IX (PPIX) [2] = assay: as above; format: cell-based; settings: increasing concentrations
Source text: PPIX absorb light in the 400 nm range, and when light is absorbed, PPIX transitions to an excited triplet state that can react with triplet oxygen to produce singlet oxygen or the excited porphyrin can generate ROS through single electron processes. These reactive species result in a loss of cell viability.
M. furfur cells are exposed to other antifungals that are not considered chelators (i.e. selenium sulfide (SeSx), Sulfur, Climbazole, and Terbinafine). After treatment, cells are then exposed to light, or not exposed to light. Both OD are measured to measure growth and PPIX levels are measured.

M. furfur [3] = assay: M. furfur growth after 20 min treatment, then 409 nm light or dark (Table 2); format: cell-based, Malassezia furfur
Method: Cells are grown in the medium of choice, generally one requiring respiration. In the case of Malassezia furfur that medium is modified Dixon medium (mDixon) (per one liter: 36 g malt extract (Difco 0186-17), 20 g ox bile (provided by American Laboratories, Inc., of Omaha, Nebraska, as Lot No. 03130792), 10 ml Tween 40 (Aldrich 27435-6), 6 g peptone (Difco 0118-17), 2 ml oleic acid (Baker 2114-01), and 2 ml glycerol (Sigma G-7893)). [Candida and YPG, Saccharomyces and YNB (without amino acids) to which we added 40 μg/ml each of uracil, histidine, and methionine plus 130 μg/ml leucine and 2% ethanol and 0.1% yeast extract.] Conventional medium may also be used for other microbials. Starting cultures are prepared by diluting a fresh overnight culture that is out of log phase 1:100 and incubating with shaking at 31° C. in a 250 mL shake flask (Corning, 431144) with 20 mL medium shaking at 200-250 rpm for about 3 hours to ensure the cells had returned to growth phase. At this time, the test agent is added to the flasks to afford the final concentration for testing. The cells are cultured for 1 hour with the test agent. At this time, the cells typically have an OD at 600 nm in the range of 0.25 to 0.8. Generally, we isolate 2.5 OD*mLs of cells calculated as desired OD*mLs divided by the OD600 of the cells. These media samples are centrifuged (Beckman Coulter Allegra™ 6KR centrifuge) 10 minutes at RT at 3200 rpm to pellet the cells. The supernatant is poured off and the tubes are set upside down on a folded paper towel to drain off the remains of media. Two and one half milliliters of PBS (Gibco, pH 7.4, without magnesium chloride or calcium chloride, 14190-144) is added and the cells resuspended. One mL of cells is transferred to each of two 12-well plates (Falcon, polystyrene, 353043). One plate is stored in the dark and the other is exposed to the light with the plate cover on the plate. […] When the light exposure is completed, the samples are mixed by slowly vortexing or pipetting and 0.65 mL of each sample is transferred to 13 mL of medium for overnight growth at 31° C. with shaking. The following morning, typically 18 hours later, the ODs at 600 nm are determined. Successful materials are those that show at least a 50% reduction in growth after light exposure relative to a dark sample.
M. furfur is incubated for twenty minutes with the indicated treatment. A cell pellet is collected after centrifugation so that most of the anti-fungal materials is expected to have been removed. The cell pellet is suspended in PBS and either treated with light (409 nm, 1100 foot candles) for ten minutes or stored in the dark for ten minutes. Samples are then diluted into mDixon with subsequent growth indicated by OD 600 nm.

M. furfur [4] = assay: Dependence of photosensitivity on wavelength, M. furfur (Table 5); format: cell-based, Malassezia furfur; set-up: overnight growth in mDixon: unit not given here; settings: for overnight growth in mDixon: N=1
Method: Dependence of photosensitivity on wavelength. A fresh overnight culture is diluted 100 fold and grown for three hours to an OD of 0.16. M. furfur is treated at the indicated dose and cultured another three hours. Cells are harvested by centrifugation, suspended in PBS, and exposed to an LED array at the indicated wavelength. The illumination is for ten minutes with 1200 foot candles. The cultures are then allowed to grow overnight in mDixon. N=1.

[5] = 8 ppm 20 min, Light 409 nm, 1100 foot candles, 10 min
[6] = 16 ppm 20 min, Light 409 nm, 1100 foot candles, 10 min
[7] = 24 ppm 20 min, Light 409 nm, 1100 foot candles, 10 min
[8] = 32 ppm 20 min, Light 409 nm, 1100 foot candles, 10 min
[9] = prior treatment, with the addition of light
[10] = LED arrays of 520 (green) and 595 (yellow) light

## Cc1cc(CC(C)CC(C)(C)C)n(O)c(=O)c1.NCCO (centres unmarked) [Piroctone Olamine, 1-Hydroxy-4-methyl-6-(2,4,4-trimethylpentyl)-2-pyridone monoethanolamine salt]
Protoporphyrin IX (PPIX) [1]; Piroctone Olamine 6 ppm
  Total PPIX: 2.6 ng
Protoporphyrin IX (PPIX) [1]; Piroctone Olamine 8 ppm
  Total PPIX: 13.9 ng
Protoporphyrin IX (PPIX) [1]; Piroctone Olamine 16 ppm
  Total PPIX: 20.7 ng
Protoporphyrin IX (PPIX) [1]; Piroctone Olamine 32 ppm
  Total PPIX: 16.5 ng
Protoporphyrin IX (PPIX) [2]
  PPIX levels: increased levels of PPIX
M. furfur [3]; 8 ppm 20 min, Dark 10 min
  growth, OD 600 nm: 7.82
M. furfur [3]; [5]
  growth, OD 600 nm: 7.35
M. furfur [3]; 16 ppm 20 min, Dark 10 min
  growth, OD 600 nm: 7.90
M. furfur [3]; [6]
  growth, OD 600 nm: 0.07
M. furfur [3]; 24 ppm 20 min, Dark 10 min
  growth, OD 600 nm: 7.07
M. furfur [3]; [7]
  growth, OD 600 nm: 0.03
M. furfur [3]; 32 ppm 20 min, Dark 10 min
  growth, OD 600 nm: 6.76
M. furfur [3]; [8]
  growth, OD 600 nm: 0.02
M. furfur [3]; 48 ppm 20 min, Dark 10 min
  growth, OD 600 nm: 7.21
M. furfur [3]; 48 ppm 20 min, Light 409 nm, 1100 foot candles, 10 min
  growth, OD 600 nm: 0.03
M. furfur [3]; 64 ppm 20 min, Dark 10 min
  growth, OD 600 nm: 7.23
M. furfur [3]; 64 ppm 20 min, Light 409 nm, 1100 foot candles, 10 min
  growth, OD 600 nm: 0.02
M. furfur [3]; [9]
  growth inhibition: considerable growth inhibition
M. furfur [4]; 8 ppm 3 h, 409 nm LED array, 10 min, 1200 foot candles
  overnight growth in mDixon: 0.891
M. furfur [4]; 8 ppm 3 h, 520 nm LED array, 10 min, 1200 foot candles
  overnight growth in mDixon: 4.34
M. furfur [4]; 8 ppm 3 h, 595 nm LED array, 10 min, 1200 foot candles
  overnight growth in mDixon: 5.59
M. furfur [4]; 8 ppm 3 h, Dark
  overnight growth in mDixon: 4.36
M. furfur [4]; 12 ppm 3 h, 409 nm LED array, 10 min, 1200 foot candles
  overnight growth in mDixon: 0.068
M. furfur [4]; 12 ppm 3 h, 520 nm LED array, 10 min, 1200 foot candles
  overnight growth in mDixon: 3.76
M. furfur [4]; 12 ppm 3 h, 595 nm LED array, 10 min, 1200 foot candles
  overnight growth in mDixon: 4.22
M. furfur [4]; 12 ppm 3 h, Dark
  overnight growth in mDixon: 2.79
M. furfur [4]; LED array of 409 nm light
  photosensitivity: observed photosensitivity
M. furfur [4]; [10]
  photosensitivity: not with LED arrays of 520 (green) and 595 (yellow) light

## [O-]n1ccccc1=S.[O-]n1ccccc1=S.[Zn+2] [ZPT, zinc salt of 1-hydroxy-2-pyridinethione]
Protoporphyrin IX (PPIX) [1]; ZPT 2.5 ppm
  Total PPIX: 0.37 ng
Protoporphyrin IX (PPIX) [1]; ZPT 5 ppm
  Total PPIX: 0.47 ng
Protoporphyrin IX (PPIX) [1]; ZPT 10 ppm
  Total PPIX: 0.27 ng
Protoporphyrin IX (PPIX) [2]
  PPIX levels: increased levels of PPIX
M. furfur [3]; 4 ppm 20 min, Dark 10 min
  growth, OD 600 nm: 10.14
M. furfur [3]; 4 ppm 20 min, Light 409 nm, 1100 foot candles, 10 min
  growth, OD 600 nm: 4.86
M. furfur [3]; 8 ppm 20 min, Dark 10 min
  growth, OD 600 nm: 9.02
M. furfur [3]; [5]
  growth, OD 600 nm: 3.16
M. furfur [3]; 16 ppm 20 min, Dark 10 min
  growth, OD 600 nm: 5.72
M. furfur [3]; [6]
  growth, OD 600 nm: 0.24
M. furfur [3]; 16 to 32 ppm, without light exposure
  growth inhibition: some growth inhibition
M. furfur [3]; 24 ppm 20 min, Dark 10 min
  growth, OD 600 nm: 5.54
M. furfur [3]; [7]
  growth, OD 600 nm: 2.41
M. furfur [3]; 32 ppm 20 min, Dark 10 min
  growth, OD 600 nm: 2.61
M. furfur [3]; [8]
  growth, OD 600 nm: 1.65
M. furfur [3]; [9]
  growth inhibition: considerable growth inhibition
M. furfur [4]; 6 ppm 3 h, 409 nm LED array, 10 min, 1200 foot candles
  overnight growth in mDixon: 0.354
M. furfur [4]; 6 ppm 3 h, 520 nm LED array, 10 min, 1200 foot candles
  overnight growth in mDixon: 3.37
M. furfur [4]; 6 ppm 3 h, 595 nm LED array, 10 min, 1200 foot candles
  overnight growth in mDixon: 3.75
M. furfur [4]; 6 ppm 3 h, Dark
  overnight growth in mDixon: 3.31
M. furfur [4]; LED array of 409 nm light
  photosensitivity: observed photosensitivity
M. furfur [4]; [10]
  photosensitivity: not with LED arrays of 520 (green) and 595 (yellow) light
